For 16 compounds, Ki results are on record in patent US12552804B2, “Tricyclic heterocycles as FGFR inhibitors” (Incyte Corporation, priority 2019, dated 2026).

This test addresses wild-type un-phosphorylated FGFR3 protein (Homo sapiens, UniProt P22607). Kind of test: FGFR Enzymatic Assay (FRET detection of peptide phosphorylation). The note with it: pre-incubated for 4 hours, read-out: FGFR3_Ki. The format is biochemical. Summed up: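 Wild-type un-phosphorylated FGFR3, preincubated 5–15 min with inhibitor in HEPES pH 7.5/MgCl2/DTT buffer, then peptide phosphorylation for 1 hr at 25 °C (ATP Km pre-determined). Quenched with EDTA/staurosporin; Eu-PY20/APC-streptavidin FRET read; IC50 from four-parameter logistic fit.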

Chain of wild-type un-phosphorylated FGFR3 protein (P22607 23-806): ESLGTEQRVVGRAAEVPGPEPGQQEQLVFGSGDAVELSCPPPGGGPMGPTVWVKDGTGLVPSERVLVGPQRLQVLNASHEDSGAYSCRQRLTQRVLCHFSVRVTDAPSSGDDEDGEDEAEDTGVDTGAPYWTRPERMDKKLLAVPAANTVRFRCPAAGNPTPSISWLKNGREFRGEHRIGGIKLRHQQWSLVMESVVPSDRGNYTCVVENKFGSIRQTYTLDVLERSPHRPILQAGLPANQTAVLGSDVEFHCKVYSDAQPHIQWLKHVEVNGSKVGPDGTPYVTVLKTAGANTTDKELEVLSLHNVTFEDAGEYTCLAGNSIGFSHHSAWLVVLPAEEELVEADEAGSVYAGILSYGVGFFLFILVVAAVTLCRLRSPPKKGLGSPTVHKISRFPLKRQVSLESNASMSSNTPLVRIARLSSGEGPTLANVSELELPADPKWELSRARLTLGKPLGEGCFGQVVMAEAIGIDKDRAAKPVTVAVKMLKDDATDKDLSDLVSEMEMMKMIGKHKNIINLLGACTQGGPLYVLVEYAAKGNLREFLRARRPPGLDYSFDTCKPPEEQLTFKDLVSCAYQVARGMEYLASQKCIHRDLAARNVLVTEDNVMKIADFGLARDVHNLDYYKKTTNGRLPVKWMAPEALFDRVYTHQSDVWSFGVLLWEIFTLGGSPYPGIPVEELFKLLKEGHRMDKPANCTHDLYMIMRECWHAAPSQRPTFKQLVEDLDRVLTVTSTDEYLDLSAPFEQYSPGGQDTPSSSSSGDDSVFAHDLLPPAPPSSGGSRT

Take `Cn1cc(-c2cnc3ccn4c(CO)c(-c5c(Cl)cccc5Cl)nc4c3c2)cn1` [Example 68, (2-(2,6-Dichlorophenyl)-9-(1-methyl-1H-pyrazol-4-yl)imidazo[2,1-f][1,6]naphthyridin-3-yl)methanol]: the Ki was below 0.01 µM.
With `OCc1c(-c2c(Cl)cccc2Cl)nc2c3cc(-c4cnn(C5CC5)c4)cnc3ccn12` [Example 69, (9-(1-Cyclopropyl-1H-pyrazol-4-yl)-2-(2,6-dichlorophenyl)imidazo[2,1-f][1,6]naphthyridin-3-yl)methanol] the figure was below 0.01 µM; with `OCc1c(-c2c(Cl)cccc2Cl)nc2c3cc(-c4cnn(C5CCOC5)c4)cnc3ccn12` (stereo not shown) [Example 70, (2-(2,6-Dichlorophenyl)-9-(1-(tetrahydrofuran-3-yl)-1H-pyrazol-4-yl)imidazo[2,1-f][1,6]naphthyridin-3-yl)methanol], below 0.01 µM.
The value for `OCc1c(-c2c(Cl)cccc2Cl)nc2c3cc(-c4cnn(C5COC5)c4)cnc3ccn12` [Example 71, (2-(2,6-Dichlorophenyl)-9-(1-(oxetan-3-yl)-1H-pyrazol-4-yl)imidazo[2,1-f][1,6]naphthyridin-3-yl)methanol] was below 0.01 µM; that for `CN(C)CCn1cc(-c2cnc3ccn4c(CO)c(-c5c(Cl)cccc5Cl)nc4c3c2)cn1` [Example 72, (2-(2,6-Dichlorophenyl)-9-(1-(2-(dimethylamino)ethyl)-1H-pyrazol-4-yl)imidazo[2,1-f][1,6]naphthyridin-3-yl)methanol] was below 0.01 µM; that for `CC(C)n1cc(-c2cnc3ccn4c(CO)c(-c5c(Cl)cccc5Cl)nc4c3c2)cn1` [Example 73, (2-(2,6-Dichlorophenyl)-9-(1-isopropyl-1H-pyrazol-4-yl)imidazo[2,1-f][1,6]naphthyridin-3-yl)methanol] was below 0.01 µM.
With `OCc1c(-c2c(Cl)cccc2Cl)nc2c3cc(-c4cnn(C(F)F)c4)cnc3ccn12` [Example 74, (2-(2,6-Dichlorophenyl)-9-(1-(difluoromethyl)-1H-pyrazol-4-yl)imidazo[2,1-f][1,6]naphthyridin-3-yl)methanol] the figure was below 0.01 µM.
Regarding `N#CCCn1cc(-c2cnc3ccn4c(CO)c(-c5c(Cl)cccc5Cl)nc4c3c2)cn1` [Example 75, 3-(4-(2-(2,6-Dichlorophenyl)-3-(hydroxymethyl)imidazo[2,1-f][1,6]naphthyridin-9-yl)-1H-pyrazol-1-yl)propanenitrile], the Ki is below 0.01 µM.
The value for `CC(C)(O)Cn1cc(-c2cnc3ccn4c(CO)c(-c5c(Cl)cccc5Cl)nc4c3c2)cn1` [Example 76, 1-(4-(2-(2,6-Dichlorophenyl)-3-(hydroxymethyl)imidazo[2,1-f][1,6]naphthyridin-9-yl)-1H-pyrazol-1-yl)-2-methylpropan-2-ol] was below 0.01 µM; that for `N#CCn1cc(-c2cnc3ccn4c(CO)c(-c5c(Cl)cccc5Cl)nc4c3c2)cn1` [Example 77, 2-(4-(2-(2,6-Dichlorophenyl)-3-(hydroxymethyl)imidazo[2,1-f][1,6]naphthyridin-9-yl)-1H-pyrazol-1-yl)acetonitrile] was below 0.01 µM; that for `CN1CCC(n2cc(-c3cnc4ccn5c(CO)c(-c6c(Cl)cccc6Cl)nc5c4c3)cn2)CC1` [Example 78, (2-(2,6-Dichlorophenyl)-9-(1-(1-methylpiperidin-4-yl)-1H-pyrazol-4-yl)imidazo[2,1-f][1,6]naphthyridin-3-yl)methanol] was below 0.01 µM.
The value for `CC(C)(CO)n1cc(-c2cnc3ccn4c(CO)c(-c5c(Cl)cccc5Cl)nc4c3c2)cn1` [Example 79, 2-(4-(2-(2,6-Dichlorophenyl)-3-(hydroxymethyl)imidazo[2,1-f][1,6]naphthyridin-9-yl)-1H-pyrazol-1-yl)-2-methylpropan-1-ol] was below 0.01 µM; that for `CS(=O)(=O)CCn1cc(-c2cnc3ccn4c(CO)c(-c5c(Cl)cccc5Cl)nc4c3c2)cn1` [Example 80, (2-(2,6-Dichlorophenyl)-9-(1-(2-(methylsulfonyl)ethyl)-1H-pyrazol-4-yl)imidazo[2,1-f][1,6]naphthyridin-3-yl)methanol] was below 0.01 µM; that for `OCc1c(-c2c(Cl)cccc2Cl)nc2c3cc(-c4cnn(CC(F)(F)F)c4)cnc3ccn12` [Example 81, (2-(2,6-Dichlorophenyl)-9-(1-(2,2,2-trifluoroethyl)-1H-pyrazol-4-yl)imidazo[2,1-f][1,6]naphthyridin-3-yl)methanol] was below 0.01 µM.
With `OCc1c(-c2c(Cl)cccc2Cl)nc2c3cc(-c4cnn(CCN5CCOCC5)c4)cnc3ccn12` [Example 82, (2-(2,6-Dichlorophenyl)-9-(1-(2-morpholinoethyl)-1H-pyrazol-4-yl)imidazo[2,1-f][1,6]naphthyridin-3-yl)methanol] the figure was below 0.01 µM; with `OCCn1cc(-c2cnc3ccn4c(CO)c(-c5c(Cl)cccc5Cl)nc4c3c2)cn1` [Example 83, 2-(4-(2-(2,6-Dichlorophenyl)-3-(hydroxymethyl)imidazo[2,1-f][1,6]naphthyridin-9-yl)-1H-pyrazol-1-yl)ethan-1-ol], below 0.01 µM.
